Measured values taken from publication PMC10176470, “Engaging a Non-catalytic Cysteine Residue Drives Potent and Selective Inhibition of Caspase-6” (Journal of the American Chemical Society, 2023).
Where two headings read alike, the source gives them in different places.

What was measured:
Format in all cases: cell-based
[1] = target: proteins of HEK293T cells transiently overexpressing caspase-6 (Homo sapiens, UniProt Q15029); conditions: exp_ref Probe; protein EFTUD2 (Q15029); analysis C6
[2] = target: proteins of HEK293T cells transiently overexpressing caspase-6 (Homo sapiens, UniProt O75874); conditions: exp_ref Probe; protein IDH1 (O75874); analysis C6
[3] = target: proteins of HEK293T cells transiently overexpressing caspase-6 (Homo sapiens, UniProt P36871); conditions: protein PGM1 (P36871); exp_ref Probe; analysis C6
Sequence of proteins of HEK293T cells transiently overexpressing caspase-6 (Homo sapiens, UniProt P36871) (P36871 whole entry): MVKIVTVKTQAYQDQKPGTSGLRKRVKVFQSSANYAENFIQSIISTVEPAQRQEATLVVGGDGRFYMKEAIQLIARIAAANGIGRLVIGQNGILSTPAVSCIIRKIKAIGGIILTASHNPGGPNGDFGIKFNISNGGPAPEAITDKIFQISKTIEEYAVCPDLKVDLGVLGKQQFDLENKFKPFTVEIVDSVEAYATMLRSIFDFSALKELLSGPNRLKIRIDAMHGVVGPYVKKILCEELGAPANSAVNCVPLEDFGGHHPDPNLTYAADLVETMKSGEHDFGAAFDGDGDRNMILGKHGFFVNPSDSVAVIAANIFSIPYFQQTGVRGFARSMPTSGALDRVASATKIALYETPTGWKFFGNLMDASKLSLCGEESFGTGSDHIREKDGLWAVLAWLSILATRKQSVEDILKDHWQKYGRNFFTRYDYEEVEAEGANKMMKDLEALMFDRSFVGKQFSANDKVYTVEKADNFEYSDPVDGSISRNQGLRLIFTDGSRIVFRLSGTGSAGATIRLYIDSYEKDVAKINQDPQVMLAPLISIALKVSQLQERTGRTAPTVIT

[4] = target: proteins of HEK293T cells transiently overexpressing caspase-6 (Homo sapiens, UniProt P49736); conditions: Probe; protein MCM2 P49736
[5] = target: proteins of HEK293T cells transiently overexpressing caspase-6 (Homo sapiens, UniProt P52597); conditions: Probe; protein HNRNPF P52597
Sequence of proteins of HEK293T cells transiently overexpressing caspase-6 (Homo sapiens, UniProt P52597) (P52597 whole entry): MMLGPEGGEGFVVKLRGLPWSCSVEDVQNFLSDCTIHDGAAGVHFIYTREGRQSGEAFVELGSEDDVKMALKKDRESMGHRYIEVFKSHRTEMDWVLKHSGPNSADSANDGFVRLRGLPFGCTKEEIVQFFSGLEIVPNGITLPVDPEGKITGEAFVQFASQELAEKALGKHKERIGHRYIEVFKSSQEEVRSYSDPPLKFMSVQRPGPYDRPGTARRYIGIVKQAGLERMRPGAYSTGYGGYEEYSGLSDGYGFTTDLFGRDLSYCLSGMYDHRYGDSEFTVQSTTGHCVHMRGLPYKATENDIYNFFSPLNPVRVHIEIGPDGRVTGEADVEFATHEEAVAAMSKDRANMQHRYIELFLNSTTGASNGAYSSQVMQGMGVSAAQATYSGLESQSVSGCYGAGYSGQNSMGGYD

[6] = target: T1, proteins of HEK293T cells transiently overexpressing caspase-6 (Homo sapiens, UniProt P09622)
T1 sequence (P09622 36-509): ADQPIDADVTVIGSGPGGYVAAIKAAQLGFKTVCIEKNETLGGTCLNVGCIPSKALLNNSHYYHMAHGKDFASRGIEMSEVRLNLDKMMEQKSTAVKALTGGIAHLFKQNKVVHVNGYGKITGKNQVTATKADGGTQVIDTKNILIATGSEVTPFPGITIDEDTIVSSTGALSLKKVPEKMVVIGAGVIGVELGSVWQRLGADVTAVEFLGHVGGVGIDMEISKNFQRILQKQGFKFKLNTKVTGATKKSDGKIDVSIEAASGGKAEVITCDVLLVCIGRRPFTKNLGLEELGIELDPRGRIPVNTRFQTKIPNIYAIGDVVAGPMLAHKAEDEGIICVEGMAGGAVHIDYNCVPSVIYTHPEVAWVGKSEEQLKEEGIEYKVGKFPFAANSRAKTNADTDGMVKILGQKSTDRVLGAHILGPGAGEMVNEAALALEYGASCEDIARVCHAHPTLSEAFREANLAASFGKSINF

[7] = target: proteins of HEK293T cells transiently overexpressing caspase-6 (Homo sapiens, UniProt Q01082); conditions: Probe; protein SPTBN1 Q01082
Sequence of proteins of HEK293T cells transiently overexpressing caspase-6 (Homo sapiens, UniProt Q01082) (Q01082 whole entry): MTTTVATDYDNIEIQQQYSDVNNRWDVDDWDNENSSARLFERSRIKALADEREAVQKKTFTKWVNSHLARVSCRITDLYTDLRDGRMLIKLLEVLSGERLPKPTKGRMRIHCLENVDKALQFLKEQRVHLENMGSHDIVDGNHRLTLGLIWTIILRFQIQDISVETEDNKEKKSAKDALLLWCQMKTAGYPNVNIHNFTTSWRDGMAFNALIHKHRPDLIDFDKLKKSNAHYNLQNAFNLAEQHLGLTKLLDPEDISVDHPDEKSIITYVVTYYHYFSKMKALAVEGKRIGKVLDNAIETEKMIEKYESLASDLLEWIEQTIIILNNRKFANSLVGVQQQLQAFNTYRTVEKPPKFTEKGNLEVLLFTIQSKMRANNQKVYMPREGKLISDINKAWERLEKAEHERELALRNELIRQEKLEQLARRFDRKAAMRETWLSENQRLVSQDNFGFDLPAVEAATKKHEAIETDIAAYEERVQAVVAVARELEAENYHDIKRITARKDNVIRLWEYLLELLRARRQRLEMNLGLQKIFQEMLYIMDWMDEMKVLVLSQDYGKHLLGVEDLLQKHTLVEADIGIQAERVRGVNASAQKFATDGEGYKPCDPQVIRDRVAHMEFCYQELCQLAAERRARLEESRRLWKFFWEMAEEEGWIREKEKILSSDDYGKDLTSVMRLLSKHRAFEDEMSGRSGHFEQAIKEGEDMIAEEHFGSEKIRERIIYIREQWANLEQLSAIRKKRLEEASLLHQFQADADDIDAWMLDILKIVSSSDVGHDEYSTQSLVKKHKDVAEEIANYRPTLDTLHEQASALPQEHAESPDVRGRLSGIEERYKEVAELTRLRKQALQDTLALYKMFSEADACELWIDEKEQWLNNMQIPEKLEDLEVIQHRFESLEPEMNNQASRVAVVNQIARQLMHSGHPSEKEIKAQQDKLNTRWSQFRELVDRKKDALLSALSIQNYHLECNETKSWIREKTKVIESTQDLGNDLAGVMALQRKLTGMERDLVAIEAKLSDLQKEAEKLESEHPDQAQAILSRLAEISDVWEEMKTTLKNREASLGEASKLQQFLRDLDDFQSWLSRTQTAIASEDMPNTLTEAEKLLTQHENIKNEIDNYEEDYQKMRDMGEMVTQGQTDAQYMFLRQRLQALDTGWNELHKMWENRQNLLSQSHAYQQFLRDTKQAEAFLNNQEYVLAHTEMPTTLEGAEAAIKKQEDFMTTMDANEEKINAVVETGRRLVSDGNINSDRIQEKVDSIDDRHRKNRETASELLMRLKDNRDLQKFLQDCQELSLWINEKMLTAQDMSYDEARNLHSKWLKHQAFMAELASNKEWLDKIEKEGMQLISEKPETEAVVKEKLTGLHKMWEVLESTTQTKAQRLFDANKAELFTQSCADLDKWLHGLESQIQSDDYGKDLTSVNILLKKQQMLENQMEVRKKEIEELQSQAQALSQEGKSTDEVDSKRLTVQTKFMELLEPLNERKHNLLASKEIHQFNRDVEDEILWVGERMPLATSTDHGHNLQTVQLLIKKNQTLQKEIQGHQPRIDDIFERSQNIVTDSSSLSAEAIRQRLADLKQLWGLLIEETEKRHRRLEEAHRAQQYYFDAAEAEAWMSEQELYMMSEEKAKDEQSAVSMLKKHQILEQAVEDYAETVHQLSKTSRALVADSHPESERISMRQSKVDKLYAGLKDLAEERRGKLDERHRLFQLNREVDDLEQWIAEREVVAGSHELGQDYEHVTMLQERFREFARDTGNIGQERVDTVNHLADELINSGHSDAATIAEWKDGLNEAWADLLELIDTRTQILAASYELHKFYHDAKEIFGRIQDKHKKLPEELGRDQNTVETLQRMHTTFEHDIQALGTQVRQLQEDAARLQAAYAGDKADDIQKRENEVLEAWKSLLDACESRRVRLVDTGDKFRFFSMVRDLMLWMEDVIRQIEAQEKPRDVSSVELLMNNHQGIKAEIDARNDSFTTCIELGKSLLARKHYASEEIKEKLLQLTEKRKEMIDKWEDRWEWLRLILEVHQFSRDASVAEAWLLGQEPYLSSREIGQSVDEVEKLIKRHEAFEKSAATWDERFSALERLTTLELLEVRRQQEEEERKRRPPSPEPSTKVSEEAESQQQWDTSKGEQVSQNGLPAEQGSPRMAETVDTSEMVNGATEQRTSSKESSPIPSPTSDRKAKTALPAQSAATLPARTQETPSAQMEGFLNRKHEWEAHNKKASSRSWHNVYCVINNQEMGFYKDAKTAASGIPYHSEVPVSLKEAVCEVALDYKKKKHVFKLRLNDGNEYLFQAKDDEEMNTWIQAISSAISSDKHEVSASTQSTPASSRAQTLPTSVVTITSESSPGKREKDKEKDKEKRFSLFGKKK

[8] = target: proteins of HEK293T cells transiently overexpressing caspase-6 (Homo sapiens, UniProt P49189); conditions: exp_ref Probe; protein ALDH9A1 (P49189); analysis C6
Sequence of proteins of HEK293T cells transiently overexpressing caspase-6 (Homo sapiens, UniProt P49189) (P49189 whole entry): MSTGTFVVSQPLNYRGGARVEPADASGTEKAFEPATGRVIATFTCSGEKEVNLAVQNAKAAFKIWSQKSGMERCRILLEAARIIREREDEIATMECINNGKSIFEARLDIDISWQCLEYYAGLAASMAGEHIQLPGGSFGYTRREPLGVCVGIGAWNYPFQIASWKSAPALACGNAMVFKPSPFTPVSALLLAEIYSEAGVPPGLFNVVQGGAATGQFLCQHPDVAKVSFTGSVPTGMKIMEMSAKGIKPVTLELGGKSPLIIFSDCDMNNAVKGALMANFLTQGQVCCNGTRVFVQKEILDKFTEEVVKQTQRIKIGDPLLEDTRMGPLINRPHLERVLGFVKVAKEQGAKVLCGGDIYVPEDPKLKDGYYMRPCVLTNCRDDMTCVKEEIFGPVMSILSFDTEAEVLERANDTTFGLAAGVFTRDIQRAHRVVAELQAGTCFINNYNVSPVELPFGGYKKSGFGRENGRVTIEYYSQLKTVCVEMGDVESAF

[9] = target: T2, proteins of HEK293T cells transiently overexpressing caspase-6 (Homo sapiens, UniProt O95197); conditions: protein RTN3 (O95197)
T2 sequence (O95197 1-1032): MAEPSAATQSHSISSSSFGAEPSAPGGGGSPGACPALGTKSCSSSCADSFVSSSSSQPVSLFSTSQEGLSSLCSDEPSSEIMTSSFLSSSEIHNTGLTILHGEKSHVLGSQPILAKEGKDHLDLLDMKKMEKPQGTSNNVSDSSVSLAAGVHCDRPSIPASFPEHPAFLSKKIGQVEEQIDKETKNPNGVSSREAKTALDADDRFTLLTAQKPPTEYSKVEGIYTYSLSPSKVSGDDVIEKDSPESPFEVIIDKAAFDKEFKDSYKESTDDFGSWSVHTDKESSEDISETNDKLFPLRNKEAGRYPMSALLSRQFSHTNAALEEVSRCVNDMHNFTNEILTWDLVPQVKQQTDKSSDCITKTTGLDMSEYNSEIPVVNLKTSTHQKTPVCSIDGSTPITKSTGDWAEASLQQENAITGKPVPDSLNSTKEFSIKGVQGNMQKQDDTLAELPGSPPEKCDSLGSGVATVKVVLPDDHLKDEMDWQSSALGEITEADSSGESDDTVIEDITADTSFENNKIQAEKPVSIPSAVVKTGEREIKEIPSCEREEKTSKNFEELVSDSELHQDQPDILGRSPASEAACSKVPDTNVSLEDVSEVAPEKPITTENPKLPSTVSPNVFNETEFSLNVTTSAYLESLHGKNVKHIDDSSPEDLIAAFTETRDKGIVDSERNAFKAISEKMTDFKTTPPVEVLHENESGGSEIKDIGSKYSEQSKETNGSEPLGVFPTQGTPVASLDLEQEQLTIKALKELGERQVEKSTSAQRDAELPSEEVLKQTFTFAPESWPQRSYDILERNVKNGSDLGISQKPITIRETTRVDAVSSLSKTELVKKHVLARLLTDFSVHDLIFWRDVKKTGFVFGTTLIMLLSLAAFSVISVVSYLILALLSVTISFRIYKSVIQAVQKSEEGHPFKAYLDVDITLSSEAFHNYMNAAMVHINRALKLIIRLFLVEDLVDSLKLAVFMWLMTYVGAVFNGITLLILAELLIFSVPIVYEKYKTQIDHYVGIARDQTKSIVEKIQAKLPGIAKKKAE

[10] = target: proteins of HEK293T cells transiently overexpressing caspase-6 (Homo sapiens, UniProt P39687); conditions: exp_ref Probe; protein ANP32A (P39687); analysis C6
Sequence of proteins of HEK293T cells transiently overexpressing caspase-6 (Homo sapiens, UniProt P39687) (P39687 whole entry): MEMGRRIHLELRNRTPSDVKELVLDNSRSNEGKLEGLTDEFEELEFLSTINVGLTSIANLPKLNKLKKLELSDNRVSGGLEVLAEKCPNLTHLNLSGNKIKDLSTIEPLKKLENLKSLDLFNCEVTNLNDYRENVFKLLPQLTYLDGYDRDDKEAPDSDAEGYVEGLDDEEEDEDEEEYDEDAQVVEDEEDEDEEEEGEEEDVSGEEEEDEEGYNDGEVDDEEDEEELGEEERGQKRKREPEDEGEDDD

[11] = target: proteins of HEK293T cells transiently overexpressing caspase-6 (Homo sapiens, UniProt P12277); conditions: protein CKB (P12277)
Sequence of proteins of HEK293T cells transiently overexpressing caspase-6 (Homo sapiens, UniProt P12277) (P12277 whole entry): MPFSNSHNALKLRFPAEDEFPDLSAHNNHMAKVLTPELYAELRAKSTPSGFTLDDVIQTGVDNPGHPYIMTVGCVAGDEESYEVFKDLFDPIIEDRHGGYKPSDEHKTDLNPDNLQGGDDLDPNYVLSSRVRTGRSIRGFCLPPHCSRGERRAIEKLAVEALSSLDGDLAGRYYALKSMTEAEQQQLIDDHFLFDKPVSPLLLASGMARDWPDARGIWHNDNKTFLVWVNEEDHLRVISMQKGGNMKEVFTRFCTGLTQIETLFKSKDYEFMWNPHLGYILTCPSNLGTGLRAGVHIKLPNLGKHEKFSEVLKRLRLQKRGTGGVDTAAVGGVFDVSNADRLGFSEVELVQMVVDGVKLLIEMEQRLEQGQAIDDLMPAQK

[12] = target: proteins of HEK293T cells transiently overexpressing caspase-6 (Homo sapiens, UniProt P04264); conditions: Probe; protein KRT1 P04264
[13] = target: proteins of HEK293T cells transiently overexpressing caspase-6 (Homo sapiens, UniProt P11586); conditions: Probe; protein MTHFD1 P11586
[14] = target: proteins of HEK293T cells transiently overexpressing caspase-6 (Homo sapiens, UniProt P26599); conditions: exp_ref Probe; protein PTBP1 (P26599); analysis C6
Sequence of proteins of HEK293T cells transiently overexpressing caspase-6 (Homo sapiens, UniProt P26599) (P26599 whole entry): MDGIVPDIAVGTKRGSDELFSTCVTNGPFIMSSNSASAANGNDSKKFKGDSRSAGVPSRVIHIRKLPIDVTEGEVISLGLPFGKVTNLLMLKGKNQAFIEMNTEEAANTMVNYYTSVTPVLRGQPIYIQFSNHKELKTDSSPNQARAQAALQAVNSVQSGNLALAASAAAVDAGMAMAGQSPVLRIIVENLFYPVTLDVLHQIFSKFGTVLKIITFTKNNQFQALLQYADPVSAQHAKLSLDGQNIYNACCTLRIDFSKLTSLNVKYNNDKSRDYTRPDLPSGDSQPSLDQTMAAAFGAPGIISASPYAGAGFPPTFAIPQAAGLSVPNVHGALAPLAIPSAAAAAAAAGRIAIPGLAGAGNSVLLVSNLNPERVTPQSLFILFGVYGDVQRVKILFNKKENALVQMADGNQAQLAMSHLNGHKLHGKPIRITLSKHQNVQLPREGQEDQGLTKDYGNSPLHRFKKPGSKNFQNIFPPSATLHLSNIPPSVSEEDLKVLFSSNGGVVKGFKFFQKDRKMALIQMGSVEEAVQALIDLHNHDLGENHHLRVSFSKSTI

With C#CCOc1ccc([C@@H]2C[C@@H](C(=O)Nc3ccc(OC(F)(F)F)cc3)CN(S(=O)(=O)C=C)C2)cc1 (relative stereo) [13-t] the enrich.exp.med [1] was 0.4056, the enrich.exp.med [2] was -0.2162 and the enrich.exp.med [3] was 1.9053. The enrich.exp.med [4] was -1.091, the enrich.exp.med [5] was -0.4498 and the enrich.exp.med ([6]; Probe, protein DLD P09622) was -1.39. The enrich.exp.med.lin ([6]; protein DLD (P09622)) was 0.3817, the enrich.exp.med.log2 ([6]; protein DLD (P09622)) was -1.39 and the enrich.exp.med [7] was -1.031. It also gave an enrich.exp.med [8] of 0.2139, an enrich.exp.med.lin [9] of 5.629 and an enrich.exp.med.log2 [9] of 2.493. It also gave an enrich.exp.med.lin ([9]; Expt Probe, analysis C6) of 5.629, an enrich.exp.med.log2 ([9]; Expt Probe, analysis C6) of 2.493 and an enrich.exp.med ([9]; exp_ref Probe, analysis C6) of 2.493. It also gave an enrich.exp.med [10] of 0.2226, an enrich.exp.med ([11]; exp_ref Probe, analysis C6) of 0.5567 and an enrich.exp.med.lin [11] of 1.4709. For the same compound, the enrich.exp.med.log2 [11] was 0.5567, the enrich.exp.med [12] was -8.014 and the enrich.exp.med [13] was -1.178. The enrich.exp.med [14] was 0.1008.
